Assay results from ChEMBL document CHEMBL1201862, “PubChem BioAssay data set” (2004).
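In this assay, cells in 96-well plates receive the compound at five concentrations for 48 hours. Endpoints are linearly interpolated between the surrounding concentrations. GI50: concentration for 50% inhibition of growth.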 Activity calls are given as the source filed them. Cut-off read from the data, not from the text of the source: active = GI50 up to about 1.1 µM and inactive = higher.

Legend:
Test in all cases: NCI anticancer screen, dose series, 48 h
M14 = tested on: M14
DMS-273 = tested on: DMS-273
CCRF-CEM = tested on: CCRF-CEM
HCT-116 = tested on: HCT-116
SK-MEL-2 = tested on: SK-MEL-2
SNB-75 = tested on: SNB-75
786-0 = tested on: 786-0
RXF 393 = tested on: RXF 393
A549 = tested on: A549
ACHN = tested on: ACHN
EKVX = tested on: EKVX
SF-268 = tested on: SF-268
IGROV-1 = tested on: IGROV-1
NCI-H522 = tested on: NCI-H522
K562 = tested on: K562
OVCAR-8 = tested on: OVCAR-8
SNB-78 = tested on: SNB-78
HCC 2998 = tested on: HCC 2998
RXF 631 = tested on: RXF 631
NCI-H23 = tested on: NCI-H23
RPMI-8226 = tested on: RPMI-8226
A498 = tested on: A498
NCI-H226 = tested on: NCI-H226
HCT-15 = tested on: HCT-15
KM-20L2 = tested on: KM-20L2
LOX IMVI = tested on: LOX IMVI
UACC-62 = tested on: UACC-62
HL-60 = tested on: HL-60
SF-295 = tested on: SF-295
UO-31 = tested on: UO-31
DMS-114 = tested on: DMS-114
HOP-18 = tested on: HOP-18
DLD-1 = tested on: DLD-1
M19-MEL = tested on: M19-MEL
NCI-H460 = tested on: NCI-H460
SNB-19 = tested on: SNB-19
SF-539 = tested on: SF-539
COLO 205 = tested on: COLO 205
OVCAR-3 = tested on: OVCAR-3
MOLT-4 = tested on: MOLT-4
UACC-257 = tested on: UACC-257
LXFL 529 = tested on: LXFL 529
HT-29 = tested on: HT-29
OVCAR-4 = tested on: OVCAR-4
SK-MEL-28 = tested on: SK-MEL-28
KM12 = tested on: KM12
XF498 = tested on: XF498
Malme-3M = tested on: Malme-3M
DU-145 = tested on: DU-145
TK-10 = tested on: TK-10
OVCAR-5 = tested on: OVCAR-5
SK-MEL-5 = tested on: SK-MEL-5
SW-620 = tested on: SW-620
SK-OV-3 = tested on: SK-OV-3
CAKI-1 = tested on: CAKI-1
U-251 = tested on: U-251
HOP-92 = tested on: HOP-92
SR = tested on: SR
SN12C = tested on: SN12C

`O=C/C(=C(/Cl)c1ccc(O)cc1)c1ccccc1` was tested, and the GI50 (M14) was 27.8 µM (inactive), the GI50 (DMS-273) was 18.8 µM (inactive) and the GI50 (CCRF-CEM) was 15.2 µM (inactive). The GI50 (HCT-116) was 18.1 µM (inactive), the GI50 (SK-MEL-2) was 32.7 µM (inactive) and the GI50 (SNB-75) was 15.3 µM (inactive). The GI50 (786-0) was 27.8 µM (inactive), the GI50 (RXF 393) was 21.6 µM (inactive) and the GI50 (A549) was 32.1 µM (inactive). For the same compound, the GI50 (ACHN) was 20.9 µM (inactive), the GI50 (EKVX) was 28.2 µM (inactive) and the GI50 (SF-268) was 25 µM (inactive). For the same compound, the GI50 (IGROV-1) was 26 µM (inactive), the GI50 (NCI-H522) was 13.3 µM (inactive) and the GI50 (K562) was 45.3 µM (inactive). For the same compound, the GI50 (OVCAR-8) was 35.9 µM (inactive), the GI50 (SNB-78) was 32.7 µM (inactive) and the GI50 (HCC 2998) was 71.9 µM (inactive). The GI50 (RXF 631) was 24.8 µM (inactive), the GI50 (NCI-H23) was 24.4 µM (inactive) and the GI50 (RPMI-8226) was 17.2 µM (inactive). The GI50 (A498) was 50.5 µM (inactive), the GI50 (NCI-H226) was > 100 µM (inactive) and the GI50 (HCT-15) was 16.1 µM. The GI50 (KM-20L2) was 31 µM (inactive), the GI50 (LOX IMVI) was 21.6 µM (inactive) and the GI50 (UACC-62) was 13.2 µM (inactive). The GI50 (HL-60) was 38.5 µM (inactive), the GI50 (SF-295) was 33.3 µM (inactive) and the GI50 (UO-31) was 21 µM (inactive). The GI50 (DMS-114) was 12.3 µM (inactive), the GI50 (HOP-18) was 20.2 µM (inactive) and the GI50 (DLD-1) was 23.5 µM (inactive). For the same compound, the GI50 (M19-MEL) was 19.7 µM (inactive), the GI50 (NCI-H460) was 33.2 µM (inactive) and the GI50 (SNB-19) was 41.2 µM (inactive). For the same compound, the GI50 (SF-539) was 28.6 µM (inactive), the GI50 (COLO 205) was 23 µM (inactive) and the GI50 (OVCAR-3) was 17.1 µM (inactive). The GI50 (MOLT-4) was 16.6 µM (inactive), the GI50 (UACC-257) was 31.2 µM (inactive) and the GI50 (LXFL 529) was 25.4 µM (inactive). The GI50 (HT-29) was 27.1 µM (inactive), the GI50 (OVCAR-4) was 22.2 µM (inactive) and the GI50 (SK-MEL-28) was 20.7 µM (inactive). For the same compound, the GI50 (KM12) was 35.6 µM (inactive), the GI50 (XF498) was 18.9 µM (inactive) and the GI50 (Malme-3M) was 23.7 µM (inactive). The GI50 (DU-145) was 62.5 µM (inactive), the GI50 (TK-10) was 29 µM (inactive) and the GI50 (OVCAR-5) was > 100 µM (inactive). For the same compound, the GI50 (SK-MEL-5) was 23 µM (inactive), the GI50 (SW-620) was 27.6 µM (inactive) and the GI50 (SK-OV-3) was 26.5 µM (inactive). The GI50 (CAKI-1) was 27.4 µM (inactive), the GI50 (U-251) was 24 µM (inactive) and the GI50 (HOP-92) was 16.6 µM (inactive). The GI50 (SR) was > 100 µM (inactive) and the GI50 (SN12C) was 24.6 µM (inactive).
